Assay results: US5369096A, “Glycolipid derivatives” (The Nisshin Oil Mills, Ltd., priority 1992, dated 1994)

How the values were obtained:
[1] = test system: HL-60 cells adhering to vascular endothelial cells of the normal human umbilical cord; assay: inhibition of adhesion of HL-60 cells to rhIL1β-stimulated vascular endothelial cells, liposome dispersion; assay type: cell-based; conditions: 20 μg/ml equivalent; for Amount of HL-60 cancer cells adhered (fluorescence intensity): rhIL1β 200 U/ml, 485 nm/535 nm
Protocol: (§1) A solution of 200 μg of phosphatidylcholine, 100 μg of cholesterol, 7.5 μg of dicetyl phosphate and 50 μg of a compound of the invention in a mixture of chloroform/methanol=2/1 (ca. 1 ml) was evaporated under reduced pressure to dryness followed by addition of 0.25 ml of a phosphate-buffered saline solution. The mixture was ultrasonicated (an output of 90 watts) for 5 min. and stirred (a vortex mixer) for 5 min. to form a liposome dispersion.
Vascular endothelial cells of the normal human umbilical cord grown to confluence were stimulated in 24-well plates with 200 U/ml of recombinant interleukin 1β (called hereafter rhIL1β, manufactured by Genzyme) at 37° C. for 4 hours. After removal of the supernatant by suction, liposome dispersions each prepared from a compound of the invention in an amount of 20 μg/ml equivalent were added except for the rhIL1β-untreated group (sample 1) and the treated groups (samples 2 and 3). The mixtures were then allowed to react at room temperature for 30 min. Subsequently, promyelocytic leukemia cell line HL-60 with 2',7'-bis(carboxyethyl)-5,6-carboxyfluorescene acetoxymethyl ester fluorescent dye enclosed was added at a level of 1×10^6 cells per well followed by centrifugal operation at 100 rpm for 20 min. Each well was washed three times followed by addition of 0.5 ml of 0.5% Triton X-100 and stirring. The contents were divided into 100 μl portions in 96-well plates and measurement was made on a Baxter fluorometer at 485 nm/535 nm.
4: rhIL1β-treated group+compound 5A-containing liposome dispersion-treated group (2EG)*
5: rhIL1β-treated group+compound 5B-containing liposome dispersion-treated group (3EG)*
6: rhIL1β-treated group+compound 5C-containing liposome dispersion-treated group (4EG)*
7: rhIL1β-treated group+compound 5D-containing liposome dispersion-treated group (5EG)*
* 2EG, 3EG, 4EG or 5EG represents a compound of the invention containing 2, 3, 4 or 5 CH2 CH2 O units, respectively. The same shall apply hereinafter.
(§2) % Inhibition of adhesion=100-[(fluorescence intensity for rhIL1β-treated group+compound-free or a compound-containing liposome dispersion-treated group)-(fluorescence intensity for rhIL1β-untreated group)/(fluorescence intensity for rhIL1β-treated group-fluorescence intensity for rhIL1β-untreatedgroup)]×100

[2] = test system: Colo 201 cancer cells adhering to vascular endothelial cells of the normal human umbilical cord; assay: inhibition of adhesion of Colo 201 cancer cells to rhIL1β-stimulated vascular endothelial cells, liposome dispersion; assay type: cell-based; conditions: 11.8 μM equivalent; for Amount of Colo 201 cells adhered (fluorescence intensity): rhIL1β 200 U/ml, 485 nm
Protocol: as §1, §2
Vascular endothelial cells of the normal human umbilical cord grown to confluence were stimulated in 24-well plates with 200 U/ml of rhIL1β at 37° C. for 4 hours. After removal of the supernatant by suction liposome dispersions each prepared from 2→3 sialyl Le^x or a compound of the invention in an amount of 11.8 μM equivalent were added except for the rhIL1β-untreated and treated groups. The mixtures were then allowed to react at room temperature for 30 min. Subsequently, colon carcinoma cell line Colo 201 with 2',7'-bis-(carboxyethyl)-5,6-carboxyfluorescene acetoxymethyl ester fluorescent dye enclosed was added at a level of 1×10^6 cells per well followed by centrifugal operation at 100 rpm for 20 min. Each well was washed three times followed by addition of 0.5 ml of 0.5% Triton X-100 and stirring. The contents were divided into 100 μl portions in 96-well plates and measurement was made on a Baxter fluorometer at 485 nm.
4: rhIL1β-treated group+2→3 sialyl Le^x -containing liposome dispersion-treated group
5: rhIL1β-treated group+compound 5E-containing liposome dispersion-treated group (OEG)*
6: rhIL1β-treated group+compound 5A-containing liposome dispersion-treated group (2EG)
7: rhIL1β-treated group+compound 5B-containing liposome dispersion-treated group (3EG)
8: rhIL1β-treated group+compound 5C-containing liposome dispersion-treated group (4EG)
9: rhIL1β-treated group+compound 5D-containing liposome dispersion-treated group (5EG)
* OEG represents a control compound containing no CH2 CH2 O unit. The same shall apply hereinafter.
Amount adhered and % inhibition of adhesion of Colo 201 cancer cells as measured from fluorescence intensity are shown in Table 2 below.

SMILES	Amount of HL-60 cancer cells adhered (fluorescence intensity) [1]	Amount of Colo 201 cells adhered (fluorescence intensity) [2]	% Inhibition of adhesion ([1]; HL-60 cells) [%]	% Inhibition of adhesion ([2]; Colo 201 cells) [%]
CCCCCCCCCCCCCCC(CCCCCCCCCCCCCC)C(=O)Nc1ccc(COCCOCCOCCOCCOCCO[C@@H]2O[C@H](CO)[C@@H](O[C@@H]3O[C@H](CO)[C@H](O)[C@H](O[C@]4(C(=O)O)C[C@H](O)[C@@H](NC(C)=O)[C@H]([C@H](O)[C@H](O)CO)O4)[C@H]3O)[C@H](O[C@@H]3O[C@@H](C)[C@@H](O)[C@@H](O)[C@@H]3O)[C@H]2O)cc1 [Compound 5D, O-(5-acetamido-3,5-dideoxy-D-glycero-α-D-galacto-2-nonulopyranosylonic acid)-(2→3)-O-β-D-galactopyranosyl-(1→4)-[O-α-L-fucopyranosyl-(1→3)-O-β-D-glucopyranosyl]-(1→1)-5-O-para-(2-tetradecylhexadecanoyl)aminobenzyl-3,6,9,12-tetraoxatetradecane-1,14-diol]	17405	240554	–	–
CCCCCCCCCCCCCCC(CCCCCCCCCCCCCC)C(=O)Nc1ccc(COCCOCCO[C@@H]2O[C@H](CO)[C@@H](O[C@@H]3O[C@H](CO)[C@H](O)[C@H](O[C@]4(C(=O)O)C[C@H](O)[C@@H](NC(C)=O)[C@H]([C@H](O)[C@H](O)CO)O4)[C@H]3O)[C@H](O[C@@H]3O[C@@H](C)[C@@H](O)[C@@H](O)[C@@H]3O)[C@H]2O)cc1 [Compound 5A, O-(5-acetamido-3,5-dideoxy-D-glycero-α-D-galacto-2-nonulopyranosylonic acid)-(2→3)-O-β-D-galactopyranosyl-(1→4)-[O-α-L-fucopyranosyl-(1→3)-O-β-D-glucopyranosyl]-(1→1)-5-O-para-(2-tetradecylhexadecanoyl)aminobenzyl-3-oxapentane-1,5-diol]	22769	246293	80.04	66.69
CCCCCCCCCCCCCCC(CCCCCCCCCCCCCC)C(=O)Nc1ccc(COCCOCCOCCOCCO[C@@H]2O[C@H](CO)[C@@H](O[C@@H]3O[C@H](CO)[C@H](O)[C@H](O[C@]4(C(=O)O)C[C@H](O)[C@@H](NC(C)=O)[C@H]([C@H](O)[C@H](O)CO)O4)[C@H]3O)[C@H](O[C@@H]3O[C@@H](C)[C@@H](O)[C@@H](O)[C@@H]3O)[C@H]2O)cc1 [Compound 5C, O-(5-acetamido-3,5-dideoxy-D-glycero-α-D-galacto-2-nonulopyranosylonic acid)-(2→3)-O-β-D-galactopyranosyl-(1→4)-[O-α-L-fucopyranosyl-(1→3)-O-β-D-glucopyranosyl]-(1→1)-11-O-para-(2-tetradecylhexadecanoyl)aminobenzyl-3,6,9-trioxaundecane-1,11-diol]	26907	240330	–	–
CCCCCCCCCCCCCCC(CCCCCCCCCCCCCC)C(=O)Nc1ccc(COCCOCCOCCO[C@@H]2O[C@H](CO)[C@@H](O[C@@H]3O[C@H](CO)[C@H](O)[C@H](O[C@]4(C(=O)O)C[C@H](O)[C@@H](NC(C)=O)[C@H]([C@H](O)[C@H](O)CO)O4)[C@H]3O)[C@H](O[C@@H]3O[C@@H](C)[C@@H](O)[C@@H](O)[C@@H]3O)[C@H]2O)cc1 [Compound 5B, O-(5-acetamido-3,5-dideoxy-D-glycero-α-D-galacto-2-nonulopyranosylonic acid)-(2→3)-O-β-D-galactopyranosyl-(1→4)-[O-α-L-fucopyranosyl-(1→3)-O-β-D-glucopyranosyl]-(1→1)-8-O-para-(2-tetradecylhexadecanoyl)aminobenzyl-3,6-dioxaoctane-1,8-diol]	17957	212789	–	–
